Publication PMC10810011 (Expert opinion on drug delivery, 2023)

Columns and labels:
PDE3A = PDE3A (Homo sapiens, UniProt Q14432); experiment: InVEST enzymatic activity, PDE3A; type: biochemical; conditions: M13 20 μM, 100 = no effect
5-HT2B = 5-HT2B (Homo sapiens, UniProt P41595); experiment: InVEST radioligand filter binding, 5-HT2B; conditions: M13 20 μM, 100 = no effect
CD-1 mice = experiment: Single-dose maximum tolerated dose; type: in vivo, mouse
A1 adenosine = A1 adenosine (Homo sapiens, UniProt P30542); experiment: InVEST radioligand filter binding, A1 adenosine; conditions: M13 20 μM, 100 = no effect
Sequence of A1 adenosine (P30542 whole entry): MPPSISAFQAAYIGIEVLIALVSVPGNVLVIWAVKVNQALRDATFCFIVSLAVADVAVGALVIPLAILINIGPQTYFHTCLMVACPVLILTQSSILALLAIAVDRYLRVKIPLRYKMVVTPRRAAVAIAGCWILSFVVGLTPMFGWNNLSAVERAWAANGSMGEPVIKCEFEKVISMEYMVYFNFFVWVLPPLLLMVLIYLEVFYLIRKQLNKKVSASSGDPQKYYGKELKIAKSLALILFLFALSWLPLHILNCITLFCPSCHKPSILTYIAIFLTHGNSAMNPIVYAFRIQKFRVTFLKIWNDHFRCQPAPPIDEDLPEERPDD

[1] = tested on: Salmonella typhimurium TA100; experiment: Ames test, strain TA100; conditions: +S9 or -S9
CCK = molecular target: T1, CCK (Homo sapiens, UniProt P32238); experiment: InVEST radioligand filter binding, CCK; conditions: CCK, M13 20 μM, 100 = no effect
T1 sequence (P32238 1-428): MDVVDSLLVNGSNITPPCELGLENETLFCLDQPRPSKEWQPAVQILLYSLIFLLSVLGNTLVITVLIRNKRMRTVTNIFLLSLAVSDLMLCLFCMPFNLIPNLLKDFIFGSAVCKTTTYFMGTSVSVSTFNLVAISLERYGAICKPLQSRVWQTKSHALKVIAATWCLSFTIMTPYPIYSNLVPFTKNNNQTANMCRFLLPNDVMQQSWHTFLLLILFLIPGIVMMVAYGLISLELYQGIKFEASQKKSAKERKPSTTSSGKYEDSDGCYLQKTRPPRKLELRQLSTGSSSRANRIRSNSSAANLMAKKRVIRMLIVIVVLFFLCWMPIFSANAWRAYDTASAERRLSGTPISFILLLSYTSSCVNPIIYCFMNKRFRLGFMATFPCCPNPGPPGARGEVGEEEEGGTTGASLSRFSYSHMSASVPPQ

PDE4A = PDE4A (Homo sapiens, UniProt P27815); experiment: InVEST enzymatic activity, PDE4A; type: biochemical; conditions: M13 20 μM, 100 = no effect
Sequence of PDE4A (P27815 whole entry): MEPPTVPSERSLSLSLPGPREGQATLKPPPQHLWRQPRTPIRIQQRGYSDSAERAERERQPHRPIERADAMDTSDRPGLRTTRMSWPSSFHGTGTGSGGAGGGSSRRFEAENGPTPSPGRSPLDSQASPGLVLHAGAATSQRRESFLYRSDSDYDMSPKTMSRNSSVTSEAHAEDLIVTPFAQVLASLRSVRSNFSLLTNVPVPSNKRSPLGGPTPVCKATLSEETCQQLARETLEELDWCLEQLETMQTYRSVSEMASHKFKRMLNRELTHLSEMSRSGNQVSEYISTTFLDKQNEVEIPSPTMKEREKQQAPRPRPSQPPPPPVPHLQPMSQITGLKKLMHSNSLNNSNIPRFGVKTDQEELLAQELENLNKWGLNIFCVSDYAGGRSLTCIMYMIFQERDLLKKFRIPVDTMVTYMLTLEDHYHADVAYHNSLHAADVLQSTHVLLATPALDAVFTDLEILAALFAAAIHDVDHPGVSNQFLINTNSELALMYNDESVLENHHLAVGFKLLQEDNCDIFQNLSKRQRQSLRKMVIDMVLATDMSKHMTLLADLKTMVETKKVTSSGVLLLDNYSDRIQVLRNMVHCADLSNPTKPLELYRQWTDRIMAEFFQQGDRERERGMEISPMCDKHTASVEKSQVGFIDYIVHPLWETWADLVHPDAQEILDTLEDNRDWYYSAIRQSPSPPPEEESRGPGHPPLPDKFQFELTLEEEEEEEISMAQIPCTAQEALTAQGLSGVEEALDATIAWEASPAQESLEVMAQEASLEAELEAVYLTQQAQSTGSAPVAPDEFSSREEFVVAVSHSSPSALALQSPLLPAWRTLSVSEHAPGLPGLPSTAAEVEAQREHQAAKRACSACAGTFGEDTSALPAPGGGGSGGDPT

Caco-2/BBe cells = experiment: Cancer-related protein expression, Human XL oncology array; type: cell-based; conditions: Caco-2/BBe lysates, 24 h; free M13 5 μg/mL, M13-NL 10 μg/mL (5 μg/mL M13)
Opioid delta = Opioid delta (Homo sapiens, UniProt P41143); conditions: M13 20 μM, 100 = no effect
Sequence of Opioid delta (P41143 whole entry): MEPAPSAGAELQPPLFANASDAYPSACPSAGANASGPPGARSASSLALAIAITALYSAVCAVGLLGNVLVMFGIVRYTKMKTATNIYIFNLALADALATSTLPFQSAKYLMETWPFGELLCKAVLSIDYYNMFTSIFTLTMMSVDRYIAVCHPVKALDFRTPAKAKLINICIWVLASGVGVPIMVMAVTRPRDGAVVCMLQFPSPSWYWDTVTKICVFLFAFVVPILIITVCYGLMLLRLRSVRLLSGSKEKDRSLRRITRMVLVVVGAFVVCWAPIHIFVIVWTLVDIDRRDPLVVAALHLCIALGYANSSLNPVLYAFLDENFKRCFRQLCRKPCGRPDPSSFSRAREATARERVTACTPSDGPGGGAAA

D2S dopamine = D2S dopamine (Homo sapiens, UniProt P14416); experiment: InVEST radioligand filter binding, D2S dopamine; conditions: M13 20 μM, 100 = no effect
Sequence of D2S dopamine (P14416 1-414 isoform P14416-2): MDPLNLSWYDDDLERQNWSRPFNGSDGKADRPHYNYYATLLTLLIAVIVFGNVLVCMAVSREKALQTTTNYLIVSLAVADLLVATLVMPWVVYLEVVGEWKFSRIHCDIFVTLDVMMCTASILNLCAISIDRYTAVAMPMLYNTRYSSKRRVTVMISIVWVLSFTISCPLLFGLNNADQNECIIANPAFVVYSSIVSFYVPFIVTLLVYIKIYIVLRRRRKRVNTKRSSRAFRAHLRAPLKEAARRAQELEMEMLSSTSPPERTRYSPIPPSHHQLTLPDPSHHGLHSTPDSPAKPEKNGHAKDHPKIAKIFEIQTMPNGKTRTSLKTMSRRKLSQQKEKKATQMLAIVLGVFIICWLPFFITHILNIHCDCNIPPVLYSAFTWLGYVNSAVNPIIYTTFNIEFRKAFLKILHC

[2] = tested on: Salmonella typhimurium TA98; experiment: Ames test, strain TA98; conditions: +S9 or -S9
Muscarinic M3 = Muscarinic M3 (Homo sapiens, UniProt P20309); experiment: InVEST radioligand filter binding, Muscarinic M3; conditions: M13 20 μM, 100 = no effect
Sequence of Muscarinic M3 (P20309 whole entry): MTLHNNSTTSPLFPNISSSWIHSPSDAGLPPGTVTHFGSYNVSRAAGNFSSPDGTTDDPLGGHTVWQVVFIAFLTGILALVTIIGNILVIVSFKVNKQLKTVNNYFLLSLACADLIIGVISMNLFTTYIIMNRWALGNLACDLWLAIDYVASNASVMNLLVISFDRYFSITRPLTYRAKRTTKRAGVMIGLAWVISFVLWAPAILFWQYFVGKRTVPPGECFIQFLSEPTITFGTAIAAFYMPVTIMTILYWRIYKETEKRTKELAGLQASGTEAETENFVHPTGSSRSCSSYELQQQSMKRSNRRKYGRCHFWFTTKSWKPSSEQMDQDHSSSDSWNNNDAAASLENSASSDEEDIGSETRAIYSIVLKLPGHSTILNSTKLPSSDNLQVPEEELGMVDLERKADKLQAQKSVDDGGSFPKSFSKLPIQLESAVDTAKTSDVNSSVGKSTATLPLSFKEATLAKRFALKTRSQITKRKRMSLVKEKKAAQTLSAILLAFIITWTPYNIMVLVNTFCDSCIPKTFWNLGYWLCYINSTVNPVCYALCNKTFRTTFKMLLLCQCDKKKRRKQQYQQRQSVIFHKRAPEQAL

histamine H1 = histamine H1 (Homo sapiens, UniProt P35367); conditions: M13 20 μM, 100 = no effect
Thrombin alpha = Thrombin alpha (Homo sapiens, UniProt P00734); experiment: InVEST enzymatic activity, Thrombin alpha; type: biochemical; conditions: M13 20 μM, 100 = no effect
5-HT1B = 5-HT1B (Homo sapiens, UniProt P28222); experiment: InVEST radioligand filter binding, 5-HT1B; conditions: 5-HT1B, M13 20 μM, 100 = no effect
Sequence of 5-HT1B (P28222 whole entry): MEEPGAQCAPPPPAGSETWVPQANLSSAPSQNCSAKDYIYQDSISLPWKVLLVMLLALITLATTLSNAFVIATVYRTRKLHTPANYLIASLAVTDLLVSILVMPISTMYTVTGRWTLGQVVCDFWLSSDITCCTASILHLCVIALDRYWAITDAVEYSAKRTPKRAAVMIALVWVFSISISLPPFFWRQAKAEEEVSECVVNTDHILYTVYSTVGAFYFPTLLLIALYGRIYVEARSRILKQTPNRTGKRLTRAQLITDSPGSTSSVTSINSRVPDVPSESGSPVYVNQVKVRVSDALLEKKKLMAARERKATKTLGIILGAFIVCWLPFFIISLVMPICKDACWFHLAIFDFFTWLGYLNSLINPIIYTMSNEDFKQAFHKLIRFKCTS

AHR-inhibition = molecular target: T2, AHR-inhibition (Homo sapiens, UniProt P35869); experiment: InVEST fluorescence polarization binding/cell-based activity, AHR-inhibition; conditions: M13 20 μM, 100 = no effect
T2 sequence (P35869 11-848): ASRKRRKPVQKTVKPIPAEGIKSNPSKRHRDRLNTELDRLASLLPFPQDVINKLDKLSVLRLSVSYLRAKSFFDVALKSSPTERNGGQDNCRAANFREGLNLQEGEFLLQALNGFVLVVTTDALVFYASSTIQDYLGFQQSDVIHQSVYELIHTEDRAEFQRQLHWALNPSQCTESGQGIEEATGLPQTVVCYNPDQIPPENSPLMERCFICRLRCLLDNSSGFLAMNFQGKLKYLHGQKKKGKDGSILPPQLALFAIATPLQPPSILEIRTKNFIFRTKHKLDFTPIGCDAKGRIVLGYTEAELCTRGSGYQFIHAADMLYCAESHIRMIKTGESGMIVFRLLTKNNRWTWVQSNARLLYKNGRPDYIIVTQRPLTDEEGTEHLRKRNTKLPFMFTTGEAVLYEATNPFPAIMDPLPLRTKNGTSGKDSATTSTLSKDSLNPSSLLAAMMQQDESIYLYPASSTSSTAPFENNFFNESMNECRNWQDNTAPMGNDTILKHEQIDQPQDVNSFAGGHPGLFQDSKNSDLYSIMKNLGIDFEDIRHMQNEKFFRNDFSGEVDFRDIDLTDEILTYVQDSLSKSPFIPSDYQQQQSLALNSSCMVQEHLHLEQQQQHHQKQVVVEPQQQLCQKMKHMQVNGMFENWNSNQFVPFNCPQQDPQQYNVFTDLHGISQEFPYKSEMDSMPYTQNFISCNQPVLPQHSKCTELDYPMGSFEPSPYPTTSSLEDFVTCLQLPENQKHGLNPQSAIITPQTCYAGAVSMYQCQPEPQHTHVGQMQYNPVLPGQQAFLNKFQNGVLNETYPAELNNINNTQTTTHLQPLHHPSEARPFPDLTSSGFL

Sequence of PDE3A (Q14432 whole entry): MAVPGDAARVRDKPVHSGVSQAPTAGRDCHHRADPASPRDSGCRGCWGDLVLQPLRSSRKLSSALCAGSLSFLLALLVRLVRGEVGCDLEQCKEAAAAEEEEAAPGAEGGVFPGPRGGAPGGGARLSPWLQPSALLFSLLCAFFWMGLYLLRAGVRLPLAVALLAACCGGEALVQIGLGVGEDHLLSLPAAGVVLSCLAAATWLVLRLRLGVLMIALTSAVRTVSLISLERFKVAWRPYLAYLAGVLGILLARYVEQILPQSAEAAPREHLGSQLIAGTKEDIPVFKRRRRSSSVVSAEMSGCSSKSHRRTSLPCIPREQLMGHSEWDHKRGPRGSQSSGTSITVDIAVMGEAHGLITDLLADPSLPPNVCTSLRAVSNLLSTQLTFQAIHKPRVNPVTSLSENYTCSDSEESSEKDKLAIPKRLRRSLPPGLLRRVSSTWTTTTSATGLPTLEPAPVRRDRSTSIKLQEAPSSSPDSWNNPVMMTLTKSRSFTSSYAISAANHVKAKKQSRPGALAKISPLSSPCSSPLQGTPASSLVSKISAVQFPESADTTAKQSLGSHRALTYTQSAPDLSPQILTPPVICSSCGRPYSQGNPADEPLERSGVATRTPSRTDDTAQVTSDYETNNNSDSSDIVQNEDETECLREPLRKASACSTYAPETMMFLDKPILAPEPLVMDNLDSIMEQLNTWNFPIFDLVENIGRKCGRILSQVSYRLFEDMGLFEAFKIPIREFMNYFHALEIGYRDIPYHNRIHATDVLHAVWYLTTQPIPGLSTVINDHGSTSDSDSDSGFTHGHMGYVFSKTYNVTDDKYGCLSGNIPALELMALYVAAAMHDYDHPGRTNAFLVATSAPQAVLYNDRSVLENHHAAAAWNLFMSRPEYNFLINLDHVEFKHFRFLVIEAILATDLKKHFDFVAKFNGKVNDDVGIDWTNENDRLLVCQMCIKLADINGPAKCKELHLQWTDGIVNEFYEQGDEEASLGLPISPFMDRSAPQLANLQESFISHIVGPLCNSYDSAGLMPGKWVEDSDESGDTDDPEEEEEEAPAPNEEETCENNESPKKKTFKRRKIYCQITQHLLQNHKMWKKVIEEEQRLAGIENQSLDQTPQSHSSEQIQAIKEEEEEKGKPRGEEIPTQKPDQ
Sequence of 5-HT2B (P41595 whole entry): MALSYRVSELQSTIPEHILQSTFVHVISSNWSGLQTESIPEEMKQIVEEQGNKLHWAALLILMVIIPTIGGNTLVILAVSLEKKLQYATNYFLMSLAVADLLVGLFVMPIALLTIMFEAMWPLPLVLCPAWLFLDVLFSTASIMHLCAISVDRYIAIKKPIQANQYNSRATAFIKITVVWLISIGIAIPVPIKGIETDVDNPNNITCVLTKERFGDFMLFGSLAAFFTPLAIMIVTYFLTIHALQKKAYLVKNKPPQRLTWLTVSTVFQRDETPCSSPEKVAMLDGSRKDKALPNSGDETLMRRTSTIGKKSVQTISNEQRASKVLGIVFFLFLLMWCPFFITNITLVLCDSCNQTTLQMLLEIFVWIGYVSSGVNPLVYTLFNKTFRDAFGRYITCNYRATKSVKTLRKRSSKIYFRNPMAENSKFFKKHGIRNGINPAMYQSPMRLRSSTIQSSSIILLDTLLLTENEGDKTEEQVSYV

CCCCCC(CC(=O)CCc1ccc(O)c(OC)c1)SC[C@H](NC(=O)CC[C@H](N)C(=O)O)C(=O)NCC(=O)O (stereo partly drawn) [M13, 5-glutathione-6-shogaol]
% Activity Data 1 (PDE3A; repetition 1): 93% | % Activity Data 2 (PDE3A; repetition 2): 94% | % Activity Data 1 (5-HT2B; repetition 1): 109% | % Activity Data 2 (5-HT2B; repetition 2): 113% | pathological sign in the anatomical organs (CD-1 mice; single oral dose 1000 mg/kg, day 7): no pathological sign | body weight change, spleen-to-body weight ratio, blood physiological and biochemical indexes (CD-1 mice; single oral dose 1000 mg/kg, day 7, vs PBS control): no significant difference | death during the experiment (CD-1 mice; single oral dose 1000 mg/kg, female CD-1 mice, 7 days): did not observe any death | maximum tolerated dose (CD-1 mice; single oral dose, mice): > 1000 mg/kg | % Activity Data 1 (A1 adenosine; repetition 1): 85% | % Activity Data 2 (A1 adenosine; repetition 2): 87% | number of revertant colonies ([1]; TA100, 156 ~ 5000 μg/plate): did not increase | mutation factor ([1]; TA100, all concentrations 156 ~ 5000 μg/plate): less than 1.6 | % Activity Data 1 (CCK; repetition 1): 94% | % Activity Data 2 (CCK; repetition 2): 92% | % Activity Data 1 (PDE4A; repetition 1): 93% | % Activity Data 2 (PDE4A; repetition 2): 94% | BCL-x expression vs. Control and statistical significance (Caco-2/BBe cells): Down-regulation, ^* | CCL20/MIP-3α expression vs. Control and statistical significance (Caco-2/BBe cells): Down-regulation, ^** | CEACAM-5 expression vs. Control and statistical significance (Caco-2/BBe cells): Down-regulation, ^* | CXCL8/IL-8 expression vs. Control and statistical significance (Caco-2/BBe cells): Down-regulation, ^* | CapG expression vs. Control and statistical significance (Caco-2/BBe cells): Down-regulation, ^* | Cathepsin B expression vs. Control and statistical significance (Caco-2/BBe cells): Down-regulation, ^* | Cathepsin D expression vs. Control and statistical significance (Caco-2/BBe cells): Down-regulation, ^* | Cathepsin S expression vs. Control and statistical significance (Caco-2/BBe cells): Down-regulation, ^** | Dkk-1 expression vs. Control and statistical significance (Caco-2/BBe cells): Down-regulation, ^** | EGFR expression vs. Control and statistical significance (Caco-2/BBe cells): Down-regulation, ^* | Enolase 2 expression vs. Control and statistical significance (Caco-2/BBe cells): Down-regulation, ^* | ErbB2/Her2 expression vs. Control and statistical significance (Caco-2/BBe cells): Down-regulation, ^** | ErbB3/Her3 expression vs. Control and statistical significance (Caco-2/BBe cells): Down-regulation, ^*** | Galectin-3 expression vs. Control and statistical significance (Caco-2/BBe cells): Down-regulation, * | HNF-3β expression vs. Control and statistical significance (Caco-2/BBe cells): Down-regulation, ^** | HO-1/HMOX1 expression vs. Control and statistical significance (Caco-2/BBe cells): Down-regulation, ^*** | P27/Kip1 expression vs. Control and statistical significance (Caco-2/BBe cells): Down-regulation, ^** | PDGF-AA expression vs. Control and statistical significance (Caco-2/BBe cells): Down-regulation, ^* | Progranulin expression vs. Control and statistical significance (Caco-2/BBe cells): Down-regulation, ^* | Prostasin/Prss8 expression vs. Control and statistical significance (Caco-2/BBe cells): Down-regulation, ^* | Survivin expression vs. Control and statistical significance (Caco-2/BBe cells): Down-regulation, ^*** | TROP1/EpCAM expression vs. Control and statistical significance (Caco-2/BBe cells): Down-regulation, ^*** | % Activity Data 1 (Opioid delta; repetition 1): 98% | % Activity Data 2 (Opioid delta; repetition 2): 104% | % Activity Data 1 (D2S dopamine; repetition 1): 106% | % Activity Data 2 (D2S dopamine; repetition 2): 89% | number of revertant colonies ([2]; TA98, 156 ~ 5000 μg/plate): did not increase | mutation factor ([2]; TA98, all concentrations 156 ~ 5000 μg/plate): less than 1.6 | % Activity Data 1 (Muscarinic M3; repetition 1): 100% | % Activity Data 2 (Muscarinic M3; repetition 2): 103% | % Activity Data 1 (histamine H1; repetition 1): 102% | % Activity Data 2 (histamine H1; repetition 2): 99% | % Activity Data 1 (Thrombin alpha; repetition 1): 96% | % Activity Data 2 (Thrombin alpha; repetition 2): 97% | % Activity Data 1 (5-HT1B; repetition 1): 100% | % Activity Data 2 (5-HT1B; repetition 2): 102% | % Activity Data 1 (AHR-inhibition; repetition 1): 98% | % Activity Data 2 (AHR-inhibition; repetition 2): 101%
